Results as given in PubChem BioAssay (NCI).
Where “and” joins values, the source holds several entries; their conditions need not be identical. Equal values may be shown once.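 How tested: cells in 96-well plates exposed to compound for 48 hours at five concentrations. The concentration for 50% growth inhibition is given as GI50. At the TGI there is no net growth.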 Where a SMILES comes first, the peptide text is derived from it. Bridges are numbered along the chain shown (N, C = ends). [ ]: non-standard residue; d: D form. The star is where a group is joined. ξ: configuration not given here. ξDab(CH2SO3H) = NC(CCNCS(=O)(=O)O)C(=O)O; Heptanoyl(6-Me) = CC(C)CCCCC(=O)*; Dab = NCC[CH](N)C(=O)O

What was measured:
Test in all cases: inhibition of tumour cell growth, NCI panel, 48 h
[1] = tested on: TK-10 renal
[2] = tested on: SK-MEL-28 melanoma
[3] = tested on: UACC-257 melanoma
[4] = tested on: HCC-2998 colon
[5] = tested on: NCI-H23 lung
[6] = tested on: OVCAR-3 ovarian
[7] = tested on: HOP-62 NSCLC
[8] = tested on: MDA-MB-435
[9] = tested on: SF-539 CNS
[10] = tested on: HCT-116 colon

SMILES	GI50 [1] [µM]	TGI [1] [µM]	GI50 [2]	TGI [2] [µM]	GI50 [3] [µM]	TGI [3] [µM]	GI50 [4] [µM]	TGI [4] [µM]	GI50 [5] [µM]	TGI [5] [µM]	GI50 [6] [µM]	TGI [6] [µM]	GI50 [7] [µM]	TGI [7] [µM]	GI50 [8] [µM]	TGI [8] [µM]	GI50 [9] [µM]	TGI [9] [µM]	GI50 [10] [µM]	TGI [10] [µM]
C[C@]12CC[C@@H]3c4cc(O)c(O)cc4CC[C@H]3[C@@H]1CC[C@@H]2O	24.8	> 74.9	5.47 µM	> 100	13	> 100	11.2	41.8	5.31	> 83.7	2.77	> 31.3	4.08	54.6	0.286	1.1	1.64	5.45	4.4	> 51.4
NC(N)=NC(N)=Nc1cnccn1		> 100		> 100		> 100		> 100		> 100		> 100		> 100		> 100		> 100		> 100
O=C(/C(=C/c1ccc([N+](=O)[O-])cc1)SCc1ccc(Cl)cc1)c1ccc(F)cc1	12.9	29.5	4.26 µM	16.2	11.5	26.1	2.39	5.41	3.92	21.9	2.2	5.13	13.1	35.4	2.23	5.87	3.47	12.6	1.39	2.92
CCC(C)C1NC(=O)C(CCNCS(=O)(=O)O)NC(=O)C(NC(=O)C(CCNCS(=O)(=O)O)NC(=O)C(NC(=O)C(CCNCS(=O)(=O)O)NC(=O)CCCCC(C)C)C(C)O)CCNC(=O)C(C(C)O)NC(=O)C(CCNCS(=O)(=O)O)NC(=O)C(CCNCS(=O)(=O)O)NC(=O)C(C(C)CC)NC1=O (stereo unspecified) ({Heptanoyl(6-Me)}-[ξDab(CH2SO3H)]T[ξDab(CH2SO3H)][Dab][ξDab(CH2SO3H)]II[ξDab(CH2SO3H)][ξDab(CH2SO3H)]T; lactam 4-C; configuration not given here)	> 25	> 25	2.72 µM	> 25	11.7	> 25	5.28	14.2	7.41	> 25	2.88	8.06	8.74	> 25	0.93	5.02	7.16	> 25	7.33	> 25
COc1cc(-c2oc3c(OC)cc(OC)c(O)c3c(=O)c2OC)cc(OC)c1OC		> 100		> 100				> 100		> 100		> 100		6.62		> 100		> 100		> 100
COc1ccc2c(c1)oc(=O)c1cc(OC)ccc12	> 100	> 100	> 100 µM	> 100	> 100	> 100	> 100	> 100	> 100	> 100	> 100	> 100	> 100	> 100	> 100	> 100	> 100	> 100	> 100	> 100
CCCCCCCCC/C(=N\NC(=O)c1ccncc1)c1ccc(O)c(O)c1O	0.196	> 100	0.384 µM	> 100	0.293	9.32	0.199	> 36.6	0.393	29.1	0.0616	> 35.7	0.09	16	0.456	> 100	0.294	8.71	0.121	12.8
CN(C)CCCCC(C(=O)CBr)(c1ccccc1)c1ccccc1	1.5	3.01	1.77 µM	3.49	1.96	6.59	2.44	5.55	2.81	10.8	1.37	2.69	8.06	23.6	2.45	10.5	2.57	6.84		
C[C@]12CC[C@@H]3c4cc(OC(F)F)c(OS(N)(=O)=O)cc4CC[C@H]3[C@@H]1CC[C@@H]2OS(N)(=O)=O	13.6	49.1	2.94 µM	20.3	5.87	24.8	3.88	17.3	2.44	21.6	2.17	28.4	3.4	38.8	0.241	3.04	0.781	3.84	0.997	13.9
C=C1C(=O)O[C@H]2C[C@@H]1CC/C(C)=C/CC/C(C)=C/CC[C@@]2(C)O	21.5	67.7	37.2 µM	> 100	> 100	> 100	24.1	74.9	7.51	> 100	51	> 100	> 100	> 100	57.5	> 100	24.9	59.3	17.6	32.8
CC1(C)CC[C@]2(C(=O)O)CC[C@]3(C)C(=CC[C@@H]4[C@@]5(C)C[C@H](O)[C@H](O)[C@@](C)(C(=O)O)[C@@H]5CC[C@]43C)[C@@H]2C1		> 100		> 100		> 100		> 100		> 100		> 100		> 100		> 100		> 100		> 100
O=C(O)C(C(=O)O)P(=S)(S)c1ccccc1 (stereo unspecified)		> 100		> 100		> 100		> 100		> 100		> 100		> 100		> 100		> 100		> 100
N#Cc1c(N)n2c(nc1=Nc1ccc(Cl)cc1)sc1cc(Cl)ccc12	15	> 100	5.74 µM and 2.8 µM	> 100	> 100	> 100	2.23	8.94		42.4	6.11	> 100	4.6	30.1	6.18	> 100	8.7	> 100	6.12	> 100
Cc1nc(-c2nc(-c3ccc(OC(F)(F)F)cc3)no2)nn1Cc1cccc(N2CCC(S(C)(=O)=O)CC2)c1	4.41	> 100	> 24.7 µM	> 100	0.286	> 86.6	> 40.6	> 100	< 0.01	> 100	11.6	> 100	> 33.1	> 100	2.9	> 100	> 40.4	> 100	< 0.01	> 100
